These results are taken from patent publication US20230295181A1, “INHIBITOR OF APOPTOSIS (IAP) PROTEIN ANTAGONISTS” (Sanford Burnham Prebys Medical Discovery Institute, priority 2020, published 2023).

In one series the test system is SKOV-3. Description: Cell viability (CellTiterGlo), SKOV-3. The following applies: Homo sapiens, SK-OV-3. Format: cell-based. As to the method: (§1) Candidate compounds are tested in 384-well plates for effects on cell viability in the presence or absence of an appropriate conventional anticancer drug. Cell viability is indirectly monitored in the first instance using CellTiterGlo (Promega Corp., Madison, WI) (Table D). To determine if cell death is apoptotic, the induction of caspase activity is assessed utilizing the CaspaseGlo Assay system (Promega Corp., Madison, WI) (Table E). Cell viability is monitored 1 to 3 days after addition of compounds and conventional drugs. […] A compound of any of the formulae as disclosed herein is evaluated in combination with said anticancer drug to determine which ML-IAP antagonist can sensitize most efficaciously. Select candidate compounds are tested in 14 point drug dose response (DDR) curves in a 384-well format in order to establish potency in combination with decreasing concentrations of lung cancer relevant drug regimens. Furthermore, checker-board titrations of a conventional drug and the candidate molecules are performed to search for synergy (using ISOBOLOGRAM analysis). Compounds and combinations as described herein are also tested for cytotoxicity against normal human cells (e.g. primary fibroblasts, lymphocytes, hepatocytes, epithelial and endothelial cells) using known methods.
(§2) Cell viability was evaluated following treatment with a compound as disclosed in Table D. Viability of cancer cells following treatment is indicated according to the following legend: […]

The subject of a further series is OVCAR-4. Nature of the series: Cell viability (CellTiterGlo), OVCAR-4. In kind it is cell-based. The following applies: Homo sapiens. As to the method:
as §1, §2
In general terms: ATP-based viability assays read luminescence as a measure of living cells.

Another series has as its system SKOV-3 cancer cell lines. Nature of the series: SKOV-3 cell viability after treatment with 10 μM test compound. In kind it is cell-based. The settings on record: for viability at 10 µM: Homo sapiens, SK-OV-3, 10 micromolar test compound, SKOV-3 cells; for % viability after treatment with 10 micromolar of test compound (SKOV-3 cells): 10 micromolar test compound, hydrochloride. On the procedure:
SKOV-3 cancer cell lines were treated with a test compound, either as a pure enantiomer or a mixture of stereoisomers, at a concentration of 10 μM. Cell viability was evaluated following treatment with a compound as disclosed in Table B. Viability of cancer cells following treatment is indicated according to the following legend:
A=0-25% viability B=26-50% viability C=>50% viability

The next series concerns the target XIAP-BIR3 (Homo sapiens (Human), UniProt P98170). Nature of the series: Fluorescence polarization (FP) assay, inhibition of SMAC peptide binding. On the procedure:
Compounds of the present disclosure were evaluated for potency and selectivity in a fluorescence polarization (FP) assay that measures inhibition of SMAC peptide binding to ML-IAP. To measure SMAC peptide binding, multi-well plate format FP assays based on the ability of SMAC peptides to bind the BIR domains of several IAPs are used to generate IC50 and Ki values for analogues. The FP assays utilize plasmid constructs encoding various full length IAPs or fragments for expression as either GST or His6-fusion proteins in bacteria. Compounds are evaluated for activity against several members of the IAP family, including the BIR domains of XIAP, cIAP1 and cIAP2 in order to generate selectivity profiles of the compounds disclosed herein. These assays also enable the identification and characterization of potency profiles of ML-IAP binding.
Activity of the compounds are indicated according to the following legend: […]
Background: Polarisation of emitted light reports the rotation of a fluorescent probe.

The subject of the next series is Caspase 3/7 (OVCAR-4). Description: Induction of caspase 3/7 activity (CaspaseGlo), OVCAR-4. Format: cell-based. The following applies: Homo sapiens. On the procedure:
as §1
(§3) The induction of caspase activities was tested with a compound as disclosed in Table E. The activities are indicated according to the following legend: […]

For the next series, the system named is Caspase 9 (SKOV-3). Nature of the series: Induction of caspase 9 activity (CaspaseGlo), SKOV-3. Format: cell-based. The following applies: Homo sapiens, SK-OV-3. On the procedure: as §1, §3
A short description of series [1]: In vivo PK plasma exposure in mice. On the procedure:
Pharmacokinetic (PK) studies are performed in vivo in mice for compounds as described herein. Standard formulations are evaluated, including hydroxypropyl methylcellulose, carboxymethylcellulose, and polyethylene glycol. For intravenous studies, compounds are administered via indwelling catheters in jugular vein and samples collected from the carotid artery. These experiments provide basic pharmacokinetic parameters including peak plasma concentration (Cmax), bioavailability (% F), exposure (AUC), half-life (t½), clearance (CL), volume of distribution (Vd), and brain levels. To measure bioavailability, a compound as described herein is administered to three animals/group, both orally (10 mg/kg) and intravenously (1 mg/kg). Intraperitoneally administration is also assessed in order to determine both brain and plasma levels of compounds.
The compounds described herein were tested in vivo in mice to measure PK plasma exposure as shown in Table F. The PK plasma values are indicated according to the following legend: […]

For a further series, the system named is Caspase 3/7 (SKOV-3). Description: Induction of caspase 3/7 activity (CaspaseGlo), SKOV-3. In kind it is cell-based. The settings on record: Homo sapiens, SK-OV-3. On the procedure: as §1, §3

The structures appear in SMILES notation. Counter-ions that a name gives are not always drawn. Bounds are passed on as bounds.

By IC50 is commonly meant the concentration that gives 50% inhibition. The viability is a per cent measure of how many cells are alive, often set against a control. The term Ki denotes the equilibrium dissociation constant of an inhibitor or competing ligand from its target. Read a low Ki as higher affinity. By EC50 is commonly meant the concentration needed to bring the measured effect to its halfway point.

Sequence of XIAP-BIR3 (P98170 241-356): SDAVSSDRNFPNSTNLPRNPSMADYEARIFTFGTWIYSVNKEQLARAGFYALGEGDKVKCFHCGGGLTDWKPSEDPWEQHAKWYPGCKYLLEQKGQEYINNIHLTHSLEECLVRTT

In the case of `CN[C@@H](C)C(=O)N[C@H]1CCS[C@H]2CC3(CCCC3)[C@@H](C(=O)N[C@@H]3CCCc4ccccc43)N2C1=O` [Compound 80, (4'S,7'S,9a'S)-4′-((S)-2-(methylamino)propanamido)-5′-oxo-N—((R)-1,2,3,4-tetrahydronaphthalen-1-yl)hexahydro-7′H-spiro[cyclopentane-1,8′-pyrrolo[2,1-b][1,3]thiazepine]-7′-carboxamide hydrochloride], the IC50 was less than 1 nM with SKOV-3 and 1 to 10 nM in the series on OVCAR-4. Also, the viability at 10 µM in the series with SKOV-3 cancer cell lines was in the range of 0 to 25%. The Ki on XIAP-BIR3 was in the range of 10 to 100 nM. Besides, the concentration for a half-maximal effect (EC50) in the series on Caspase 3/7 (OVCAR-4), in the series on Caspase 9 (SKOV-3) and with Caspase 3/7 (SKOV-3) was less than 1 nM throughout. Further, the “PK plasma exposure at 1 h (IP, 10 mg/kg)” value in series [1] is “iii (iii=500-1000 nM)”.

For the compound `CCC1(CC)C[C@@H]2SCC[C@H](NC(=O)[C@H](C)NC)C(=O)N2C1C(=O)N[C@@H]1CCCc2ccccc21` (mixture of isomers) [Compound 38, (4S,9aS)-8,8-diethyl-4-((S)-2-(methylamino)propanamido)-5-oxo-N—((R)-1,2,3,4-tetrahydronaphthalen-1-yl)octahydropyrrolo[2,1-b][1,3]thiazepine-7-carboxamide hydrochloride], the IC50 in the series with SKOV-3 and with OVCAR-4 was 10 to 100 nM in each case. Further, the “% viability after treatment with 10 micromolar of test compound (SKOV-3 cells)” value (“% viability after treatment” for short) in the series on SKOV-3 cancer cell lines is “A (A=0-25% viability)”. This compound also displayed an inhibition constant (Ki) on XIAP-BIR3 of more than 100 nM. Also, the EC50 in the series with Caspase 3/7 (OVCAR-4), in the series on Caspase 9 (SKOV-3) and with Caspase 3/7 (SKOV-3) was 1 to 10 nM throughout. Besides, the “PK plasma exposure at 1 h (IP, 10 mg/kg)” value in series [1] is given as “iii (iii=500-1000 nM)”.

Turning to `CN[C@@H](C)C(=O)N[C@H]1CCOC2CC3(CC=CC3)C(C(=O)N[C@@H]3CCCc4ccccc43)N2C1=O` (stereo partly drawn) [Compound 81, (4'S)-4′-((S)-2-(methylamino)propanamido)-5′-oxo-N—((R)-1,2,3,4-tetrahydronaphthalen-1-yl)-2′,3′,4′,5′,9′,9a′-hexahydro-7′H-spiro[cyclopentane-1,8′-pyrrolo[2,1-b][1,3]oxazepin]-3-ene-7′-carboxamide hydrochloride], the IC50 lay in the range of 1 to 10 nM in the series on SKOV-3 and 10 to 100 nM with OVCAR-4. This compound also gave a viability at 10 µM in the series with SKOV-3 cancer cell lines of 0 to 25%. The compound further had an inhibitory constant (Ki) at XIAP-BIR3 of 10 to 100 nM. In addition, the EC50 in the series with Caspase 3/7 (OVCAR-4), in the series with Caspase 9 (SKOV-3) and in the series on Caspase 3/7 (SKOV-3) was 1 to 10 nM in each case. In addition, in series [1], the “PK plasma exposure at 1 h (IP, 10 mg/kg)” value is “iii (iii=500-1000 nM)”.

On to `CN[C@@H](C)C(=O)N[C@H]1Cc2cc(OC)ccc2[C@H]2CC(C)(C)[C@@H](C(=O)N[C@@H]3CCCc4ccccc43)N2C1=O` [Compound 9, (6S,11bR)-9-methoxy-2,2-dimethyl-6-((S)-2-(methylamino)propanamido)-5-oxo-N—((R)-1,2,3,4-tetrahydronaphthalen-1-yl)-2,3,5,6,7,11b-hexahydro-1H-benzo[c]pyrrolo[1,2-a]azepine-3-carboxamide hydrochloride], for which the 50% inhibitory concentration (IC50) with SKOV-3 and in the series on OVCAR-4 was 100 to 1000 nM each time. The compound also registered a viability at 10 µM with SKOV-3 cancer cell lines of 0 to 25%.

In the case of `CN[C@@H](C)C(=O)N[C@H]1CCS[C@H]2CC(C(C)C)(C(C)C)[C@@H](C(=O)N[C@@H]3CCCc4ccccc43)N2C1=O` [Compound 41, 4S,9aS)-8,8-diisopropyl-4-((S)-2-(methylamino)propanamido)-5-oxo-N—((R)-1,2,3,4-tetrahydronaphthalen-1-yl)octahydropyrrolo[2,1-b][1,3]thiazepine-7-carboxamide hydrochloride], the 50% inhibitory concentration (IC50) in the series on SKOV-3 and with OVCAR-4 was more than 1000 nM in each case. Moreover, the “% viability after treatment” value with SKOV-3 cancer cell lines is on record as “A (A=0-25% viability)”.

For `CN[C@@H](C)C(=O)N[C@H]1Cc2ccc(OC)cc2[C@H]2CC(C)(C)[C@@H](C(=O)N[C@@H]3CCCc4ccccc43)N2C1=O` [Compound 11, (6S,11bR)-10-methoxy-2,2-dimethyl-6-((S)-2-(methylamino)propanamido)-5-oxo-N—((R)-1,2,3,4-tetrahydronaphthalen-1-yl)-2,3,5,6,7,11b-hexahydro-1H-benzo[c]pyrrolo[1,2-a]azepine-3-carboxamide hydrochloride], the IC50 in the series on SKOV-3 and in the series with OVCAR-4 was more than 1000 nM in each case. In addition, the viability at 10 µM with SKOV-3 cancer cell lines was 26 to 50%.

`C=CCC1C[C@@H]2OCC[C@H](NC(=O)[C@H](C)NC)C(=O)N2[C@@H]1C(=O)N[C@@H]1CCCc2ccccc21` (stereo partly drawn) [Compound 15, (4S,9aS)-8,8-allyl-4-((S)-2-(methylamino)propanamido)-5-oxo-N—((R)-1,2,3,4-tetrahydronaphthalen-1-yl)octahydropyrrolo[2,1-b][1,3]oxazepine-7-carboxamide hydrochloride]: the half-maximal inhibitory concentration (IC50) with SKOV-3 was 10 to 100 nM; in the series with OVCAR-4 it was more than 1000 nM. The compound also yielded a viability at 10 µM in the series on SKOV-3 cancer cell lines of 26 to 50%.

Consider `CN[C@@H](C)C(=O)N[C@@H]1C(=O)N2[C@H](CC(C)(C)[C@H]2C(=O)N[C@@H]2CCCc3ccccc32)OC2CCCCC21` (single isomer, unassigned) [Compound 65, hydrochloride], for which the IC50 in the series with SKOV-3 and in the series with OVCAR-4 was 10 to 100 nM throughout. This compound also had a viability at 10 µM with SKOV-3 cancer cell lines of 0 to 25%. Also, the inhibitory constant (Ki) on XIAP-BIR3 lay in the range of 10 to 100 nM. In addition, the half-maximal effective concentration (EC50) in the series on Caspase 3/7 (OVCAR-4), in the series with Caspase 9 (SKOV-3) and in the series with Caspase 3/7 (SKOV-3) was 1 to 10 nM in each case. Besides, the “PK plasma exposure at 1 h (IP, 10 mg/kg)” value in series [1] was “iii (iii=500-1000 nM)”.

With `CN[C@@H](C)C(=O)N[C@H]1CCO[C@H]2CC(C)(C)[C@@H](C(=O)NCCC(C)C)N2C1=O` [Compound 70, (4S,7S,9aS)—N-isopentyl-8,8-dimethyl-4-((S)-2-(methylamino)propanamido)-5-oxooctahydropyrrolo[2,1-b][1,3]oxazepine-7-carboxamide hydrochloride], the IC50 in the series with SKOV-3 and in the series on OVCAR-4 was more than 1000 nM each time. This compound also yielded a viability at 10 µM in the series with SKOV-3 cancer cell lines of more than 50%.

For the compound `CC[C@H](NC)C(=O)N[C@H]1CCS[C@H]2CC(C)(C)[C@@H](C(=O)N[C@@H]3CCCc4ccccc43)N2C1=O.Cl` [Compound 79, (4S,7S,9aS)-8,8-dimethyl-4-((S)-2-(methylamino)butanamido)-5-oxo-N—((R)-1,2,3,4-tetrahydronaphthalen-1-yl)octahydropyrrolo[2,1-b][1,3]thiazepine-7-carboxamide hydrochloride], the 50% inhibitory concentration (IC50) was in the range of 1 to 10 nM with SKOV-3 and 10 to 100 nM in the series with OVCAR-4. The compound further returned a viability at 10 µM in the series with SKOV-3 cancer cell lines of 0 to 25%. Further, the concentration giving a half-maximal response (EC50) with Caspase 3/7 (OVCAR-4), with Caspase 9 (SKOV-3) and in the series with Caspase 3/7 (SKOV-3) was 1 to 10 nM throughout. Moreover, the “PK plasma exposure at 1 h (IP, 10 mg/kg)” value in series [1] is listed as “iii (iii=500-1000 nM)”.

With `C=CCC1C[C@@H]2SCC[C@H](NC(=O)[C@H](C)NC)C(=O)N2[C@@H]1C(=O)N[C@@H]1CCCc2ccccc21` (stereo partly drawn) [Compound 32, (4S,9aS)-8,8-allyl-4-((S)-2-(methylamino)propanamido)-5-oxo-N—((R)-1,2,3,4-tetrahydronaphthalen-1-yl)octahydropyrrolo[2,1-b][1,3]thiazepine-7-carboxamide hydrochloride], the IC50 with SKOV-3 is 10 to 100 nM; in the series on OVCAR-4 it was more than 1000 nM. Moreover, the “% viability after treatment” value in the series with SKOV-3 cancer cell lines is recorded as “A (A=0-25% viability)”.
